Results from ChEMBL document CHEMBL1133518, “5-[1'-(2'-N-Arylsulfonyl-1',2',3',4'-tetrahydroisoquinolyl)]-4, 5-dihydro-2(3H)-furanones: positive allosteric modulators of the GABA(A) receptor with a new mode of action” (J Med Chem, 2000).
Activity calls are given as the source filed them. No cut-off for these calls is given here.

Assays:
[1] = target: T1, GABA-A receptor; anion channel (Rattus norvegicus) (UniProt O09028+P15431+P18506+P18508+P19969+P20236+P23574+P23576+P28471+P28473+P30191+P62813+P63079+P63138+Q91ZM7+Q9ES14); assay: (§1) Displacement of [3H]flunitrazepam from GABA-A receptor of rat forebrain; design: concentration or dose not given beside the values
[2] = target: T1, GABA-A receptor; anion channel (Rattus norvegicus); assay: (§2) Displacement of [3H]flunitrazepam from GABA-A receptor of rat cerebellum; type: tissue-based; design: concentration or dose not given beside the values
[3] = target: T2, GABA-A receptor; alpha-1/beta-2/gamma-2 (Rattus norvegicus) (UniProt P18508+P62813+P63138); assay: Percent stimulation of Cl- current in Xenopus laevis oocytes expressing rat GABA-A alpha-1-beta-2-gamma-2 subunits at 100 uM; type: functional, cell-based; conditions: Oocyte
[4] = target: T1, GABA-A receptor; anion channel (Rattus norvegicus); assay: In vitro displacement of [3H]muscimol from Gamma-aminobutyric acid A receptor of rat brain membranes, slight stimulation activity; type: cell membranes; conditions: Membrane
[5] = target: T1, GABA-A receptor; anion channel (Rattus norvegicus); assay: In vitro displacement of [35S]TBPS from Gamma-aminobutyric acid A receptor of rat brain membranes; type: cell membranes; design: concentration or dose not given beside the values; conditions: Membrane
[6] = target: T1, GABA-A receptor; anion channel (Rattus norvegicus); assay: In vitro displacement of [3H]muscimol from Gamma-aminobutyric acid A receptor of rat brain membranes; type: cell membranes; conditions: Membrane
[7] = target: T1, GABA-A receptor; anion channel (Rattus norvegicus); assay: In vitro displacement of [3H]muscimol from Gamma-aminobutyric acid A receptor of rat brain membranes (15% stimulation); type: cell membranes; conditions: Membrane
[8] = target: GABA-A receptor; anion channel; assay: as §1
[9] = target: GABA-A receptor; anion channel; assay: as §2; type: tissue-based
[10] = target: T1, GABA-A receptor; anion channel (Rattus norvegicus); assay: In vitro displacement of [3H]muscimol from Gamma-aminobutyric acid A receptor of rat brain membranes, range 5-10% stimulation; type: cell membranes; conditions: Membrane
[11] = target: T2, GABA-A receptor; alpha-1/beta-2/gamma-2 (Rattus norvegicus); assay: Percent stimulation of 5-alpha-pregnan-3-alpha-ol-20-one elicited Cl- current in Xenopus laevis oocytes expressing rat GABA-A alpha-1-beta-2-gamma-2 subunits at 30 uM; type: functional, cell-based; conditions: Oocyte
[12] = target: T2, GABA-A receptor; alpha-1/beta-2/gamma-2 (Rattus norvegicus); assay: Percent stimulation of pentobarbital elicited Cl- current in Xenopus laevis oocytes expressing rat GABA-A alpha-1-beta-2-gamma-2 subunits at 30 uM; type: functional, cell-based; conditions: Oocyte

Displacement [1] [%] | Displacement [2] [%] | Stimulation [3] [%] | Displacement [4] | Displacement [5] [%] | Displacement [6] [%] | Displacement [7] [%] | IC50 [8] [nM] | IC50 [9] [nM] | Displacement [10] [%] | Stimulation [11] [%] | Stimulation [12] [%] | SMILES
9 | 14 | 118 |  | 0 |  | 15 |  |  |  |  |  | O=C1CC[C@H]([C@H]2c3ccccc3CCN2S(=O)(=O)c2ccc3ccccc3c2)O1
66 | 74 | 423 | inactive | 50 |  |  |  |  |  |  |  | O=C1CC[C@H]([C@H]2c3ccccc3CCN2S(=O)(=O)c2ccccc2)O1 (racemic)
49 | 67 | 859 |  |  |  |  |  |  |  | 644 | 588 | Cc1ccc(S(=O)(=O)N2CCc3ccccc3[C@@H]2[C@H]2CCC(=O)O2)cc1 (stereo in doubt)
35 | 61 | 184 |  |  |  |  |  |  |  |  |  | Cc1ccc(S(=O)(=O)N2CCc3ccccc3[C@@H]2[C@H]2CCC(=O)O2)cc1 (stereo in doubt; 2c)

The next lines start with the molecule.

SMILES | Displacement [1] [%] | Displacement [2] [%] | Stimulation [3] [%] | Displacement [4] | Displacement [5] [%] | Displacement [6] [%] | Displacement [7] [%] | IC50 [8] [nM] | IC50 [9] [nM] | Displacement [10] [%] | Stimulation [11] [%] | Stimulation [12] [%]
CN(C)S(=O)(=O)N1CCc2ccccc2[C@@H]1[C@H]1CCC(=O)O1 | 20 | 20 | 62 | inactive | 0 |  |  |  |  |  |  | 
CS(=O)(=O)N1CCc2ccccc2[C@@H]1[C@H]1CCC(=O)O1 | 20 | 26 | 32 |  | 0 | 0 |  |  |  |  |  | 
O=C1CC[C@H]([C@H]2c3ccccc3CCN2S(=O)(=O)c2ccc(C(F)(F)F)cc2)O1 | 30 | 42 | 90 |  | 0 | 0 |  |  |  |  |  | 
O=C1CC[C@H]([C@H]2c3ccccc3CCN2S(=O)(=O)c2cccs2)O1 | 47 | 66 | 353 |  | 25 | 0 |  |  |  |  |  | 
O=C1CC[C@H]([C@H]2c3ccccc3CCN2C(=O)OCc2ccccc2)O1 (racemic) |  |  | 351 |  | 0 | 0 |  | 160 | 60 |  |  | 
Cc1ccc(S(=O)(=O)N2CCc3ccccc3[C@@H]2[C@H]2CCC(=O)O2)cc1 (racemic) | 49 | 66 | 579 |  | 15 |  |  |  |  | 10 |  | 
O=C1CC[C@H]([C@H]2c3ccccc3CCN2S(=O)(=O)c2ccc(Cl)cc2)O1 (racemic) | 30 | 43 | 479 | inactive | 60 |  |  |  |  |  |  | 
